Measurements: US20200354426A1 (MEDIMMUNE LIMITED, priority 2016, published 2020)
Numbered stars: 1 amine (or outer) side, 2 acyl side, 3 side chain; on linkers, the order of the positions; unused ones are H or OH. Side chains are listed from the residue outwards. Peptide text beside a SMILES is read from it. * marks the point of attachment. γGlu = O=C(O)[C@H](CCC(=O)[*:2])N[*:1]; Palmitoyl = CCCCCCCCCCCCCCCC(=O)*

Columns and labels:
[1] = test system: overweight or obese subjects with type 2 diabetes mellitus; test: Phase 1/2 multiple-ascending-dose study of G933, Cohorts 1-6 (efficacy, PK, safety); assay type: in vivo, human
Text: Approximately 75 overweight or obese subjects with relatively well controlled type 2 diabetes mellitus (T2DM) are enrolled to participate in the study. The enrolled subjects meet the following inclusion and exclusion criteria.
Exclusion Criteria: • Any condition that would interfere with evaluations of the investigational product or interpretation of subject safety or study results. […] Patients who utilize benzodiazepines for chronic anxiety or sleep disorders may be permitted to enter the study; • History of severe allergy/hypersensitivity or ongoing clinically important allergy/hypersensitivity; • Whole blood or red blood cell donation, or any blood loss >500 mL during the 2 months prior to screening; • Received another new chemical entity (defined as a compound that has not been approved for marketing), or has participated in any other clinical study that included drug treatment within at least 30 days or 5 half-lives prior to the first administration of investigational product in this study (whichever is longer). The period of exclusion to begin 30 days or 5 half-lives of investigational product after the final dose, or after the last visit, whichever is longest.
Part A consists of 3 cohorts.
Part B consists of 1 cohort.
The initial dose is 100 μg.
Approximately 32 overweight or obese subjects with relatively well controlled type 2 diabetes mellitus (T2DM) are enrolled to participate in the study. The enrolled subjects meet the inclusion and exclusion criteria described in Example 5 with the following exceptions:
Inclusion Criteria: • Cohort 5 and 6 subjects must be willing and able to self-administer daily subcutaneous (SC) injections following an initial self-injection of placebo (or normal saline) during the screening period.
Exclusion Criteria: • Abnormal vital signs, after 10 minutes of supine rest, are defined as any of the following: (a) If systolic BP<90 mm Hg or ≥140 mm Hg; (b) Diastolic BP<50 mm Hg or ≥90 mm Hg; or (c) HR<45 or >85 bpm; • Unstable angina pectoris or stable angina pectoris classified higher than Canadian Cardiovascular Society class II or any previous medical history of myocardial infarction or stroke, or a history of a transient ischemic attack within the prior 12 months.
A randomized, double-blind, multiple-ascending dose study is performed. This study consists of 2 cohorts: cohort 5 and cohort 6. […] Cohorts 5 and 6 have approximately 32 subjects total and are run in parallel.
The study consists of an inpatient up-titration evaluation period beginning on Day 3 for both Cohorts 5 and 6 and an outpatient follow-up period. The first 4 days and the final day of dosing at 300 μg […].
Subjects are admitted to the clinic as described in Example 5 for Cohorts 1-4. […] Subjects have a second inpatient period for the initiation of the 300 μg dose ending on the fourth day at that dose followed by at-home self administration.
Additional time points include before commencing the 300 μg dose (Day 16 for Cohort 5 and Day 11 for Cohort 6) and at the end of dosing (Day 22 for Cohort 5 and Day 17 for Cohort 6). The MMT are performed as described in Example 5.

[2] = Stability testing of peptides in plasma; assay type: in vitro ADME, human
Protocol: The stability in plasma of the peptideS […], […], […] and […] was determined as follows. […] The spiked plasma samples were gently mixed and allowed to equilibrate for about 5 minutes before start of experiment. The plasma samples were incubated for 48 hours in a GalaxyR CO2 incubator at 37° C. […] The samples were stored at -70° C. until analysis. Plasma samples were assayed as follows. […] After mixing and centrifugation, 100 μl the supernatant was transferred to a new plate and 1 μl was injected onto an analytical column. The analysis was performed using a μLC-system ([…]) coupled to a medium high resolution mass spectrometer (Perkin Elmer PenTOF) with positive electrospray ionisation. […] Flow: 0.1 ml/min using a slow reversed phase gradient. […] Cleavage products arise from the action of the protease DPP IV in plasma. Both the degradation of the peptides and formation of peptide products were reported in percentage of the initial peptide concentration. Peaks were integrated and % remaining peptide was calculated: […] Levels of deamidation and DPP IV cleavage were low for […] and […].

[3] = Cohort 4, after 41 days, p<0.001

## L-Histidyl-L-seryl-L-glutaminylglycyl-L-threonyl-L-phenylalanyl-L-threonyl-L-seryl-L-alpha-aspartyl-(N6-[N-(1-oxohexadecyl)-L-gamma-gutamyl])L-lysy-L-sery-L-alpha-glutamyl-L-tyrosyl-L-leucyl-L-alpha-aspartyl-L-seryl-L-alpha-glutamyl-L-arginyl-L-alanyl-L-arginyl-L-alpha-L-aspartyl-L-phenylalanyl-L-valyl-L-alanyl-L-tryptophyl-L-leucyl-L-alpha-glutamyl-L-alanylglycylglycine [Peptide G933]
[1]; Cohort 1, 100 ug, n = 6
  Fasting Glucose (change): -28.00 mg/dL
  Weight (change): -1.1 kg
[1]; Cohort 2, 150 ug, n = 6
  Fasting Glucose (change): -17.90 mg/dL
  Weight (change): -0.5 kg
[1]; Cohort 3 (up to 200 μg, 15 days)
  weight differential: more than 2 kg
[1]; Cohort 3, 200 ug, n = 6
  Fasting Glucose (change): -43.20 mg/dL
  Weight (change): -2.4 kg
[1]; Cohort 4, 200 ug, n = 25
  Fasting Glucose (change): -32.62 mg/dL
  Weight (change): -2.11 kg
[1]; Cohort 4, after 41 days
  patients who lost at least 2% of their weight: 84%
  patients who lost at least 5 kg: 44%
  percent of weight lost: about 4.18%
  weight lost: about 3.83 kg
[1]; Cohort 4, after 41 days of treatment
  HbA1c reduction: 0.92%
[1]; [3]
  percent weight loss difference between G933 and placebo: 2.47%
  weight loss difference between G933 and placebo: 2.12 kg
[1]; Cohort 4, up to 200 μg, 90% C.I. −47.1, −29.0
  mean reduction in glucose AUC from baseline (day 1) to day 41: 38.5%
[1]; Cohort 4, 95% CI 7.2, 33.9, p=0.004
  mean relative reduction in liver fat percentage from baseline versus placebo: 20.5%
[1]; Cohort 4, (−0.24, −0.03), p=0.01
  reduction in liver volume compared to placebo: 0.14 L
[1]; Cohort 4, baseline mean […]
  mean HbA1c on day 42: 6.3%
[1]; Cohort 5 (up to 300 μg, 22 days), 90% C.I. −49.9, −33.5
  glucose AUC reduction: 41.7%
[1]; Cohort 5, 300 ug, n = 12
  Fasting Glucose (change): -24.40 mg/dL
  Weight (change): -2.11 kg
[1]; Cohort 5, after 22 days
  weight loss difference versus placebo: 2.11 kg
  weight lost: about 3.09 kg
[1]; Cohort 6 (up to 300 μg, 17 days), C.I. −43.3, −28.3
  glucose AUC reduction: 35.8%
[1]; Cohort 6, 300 ug, n = 12
  Fasting Glucose (change): -36.94 mg/dL
  Weight (change): -1.88 kg
[1]; Cohort 6, after 17 days
  weight loss difference versus placebo: 1.88 kg
  weight lost: about 2.23 kg
[1]; Cohorts 1-3 (100-200 μg QD)
  mixed-meal test glucose AUC reduction: > 40%
[1]; Cohorts 1-3, dose dependent trend
  weight loss: up to 2 kg

## CCCCCCCCCCCCCCCC(=O)N[C@@H](CCC(=O)NCCCC[C@H](NC(=O)[C@H](CCCCN)NC(=O)[C@H](CO)NC(=O)[C@H](Cc1ccc(O)cc1)NC(=O)[C@H](CC(=O)O)NC(=O)[C@H](CO)NC(=O)[C@@H](NC(=O)[C@H](Cc1ccccc1)NC(=O)[C@@H](NC(=O)CNC(=O)[C@H](CCC(N)=O)NC(=O)[C@H](CO)NC(=O)[C@@H](N)Cc1c[nH]cn1)[C@@H](C)O)[C@@H](C)O)C(=O)N[C@@H](CC(C)C)C(=O)N[C@@H](CC(=O)O)C(=O)N[C@@H](CO)C(=O)N[C@@H](CCC(=O)O)C(=O)N[C@@H](CCCNC(=N)N)C(=O)N[C@@H](C)C(=O)N[C@@H](CCCNC(=N)N)C(=O)N[C@@H](CC(=O)O)C(=O)N[C@@H](Cc1ccccc1)C(=O)N[C@H](C(=O)N[C@@H](C)C(=O)N[C@@H](Cc1c[nH]c2ccccc12)C(=O)N[C@@H](CC(C)C)C(=O)N[C@H](C(=O)N[C@@H](C)C(=O)NCC(=O)NCC(N)=O)C(C)C)C(C)C)C(=O)O [Peptide G730] (H-HSQGTFTSDYSKK([γGlu-Palmitoyl])LDSERARDFVAWLVAGG-NH2; N-terminus assumed)
[2]
  % +1 prod: <1%
  % DPP cleaved product/+1 DPP cleaved product: <1%
[2]; human, plasma
  remaining at 24 h, 2 μmol/L: 100%
